Test results published in patent publication US20160166638A1, “LACTOFERRIN-OSTEOPONTIN-IRON COMPLEX” (NESTEC S.A., priority 2013, published 2016).

Assay: Colour change of iron fortified strawberry-banana yoghurt after flash pasteurization (CIELAB colorimetry)
Assay type: physicochemical
Conditions: colour difference vs yoghurt with no iron salts; Jogolino Strawberry/Banana yoghurt, approx. 0.8 mg iron per 100 g; flash pasteurized at 105° C. for 2 minutes
Experimental: Commercial yoghurt, Nestlé Jogolino™ Strawberry/Banana yoghurt containing 15% banana puree and 10% strawberry puree, was iron fortified by the addition of different iron containing materials to 5 kg yoghurt as reported in the table below. The amounts were chosen to provide approximately 0.8 mg iron per 100 g yoghurt. A 100 g serving of yoghurt with that level of iron would provide 15% of the recommended daily amount of iron for an infant [Official Journal of the European Union, Commission Directive 2006/125/EC].
For the lactoferrin-osteopontin-iron complex (Trial B), the powder from Example 1 was added to yoghurt at a level of 28 g per 5 kg yoghurt. The resulting yoghurt composition comprised 5.6 g powder per kg which is 4 g LF-OPN-Fe complex per kg.
The yoghurts were flash pasteurized at 105° C. for 2 minutes. Colour measurements were performed in 1×1 cm polystyrene cuvettes using an X-Rite ColorEye 7000A colorimeter. The colorimeter was set up with a D65 light source, 10 degree observer angle and with specular component included. The colour difference between the yoghurt with no iron salts and the iron fortified yoghurt was measured for each iron salt and expressed as ΔEab* using the CIELAB colour scale.

Row | ΔEab* | SMILES
1 | 3.11 | O.O=C([O-])CN(CCN(CC(=O)[O-])CC(=O)[O-])CC(=O)[O-].[Fe+3].[Na+] [NaFeEDTA × H2O]
2 | 4.74 | O.O=S(=O)([O-])[O-].[Fe+2] [FeSO4 × H2O]
